ChEMBL document CHEMBL5512692, “Colloidal Aggregation Confounds Cell-Based Covid-19 Antiviral Screens” (J Med Chem, 2024)

Tested on: SARS-CoV-2
Assay: Antiviral activity against SARS-CoV-2 pseudotyped lentivirus infected in HEK293 cells overexpressing EGFP-fused hACE2 coexpressing mCherry assessed as reduction in virus entry incubated for 40 mins by immunocytochemistry assay
Format: functional, organism-based
Details: Severe acute respiratory syndrome coronavirus 2, HEK293, 40 min

Row | SMILES | EC50 [µM]
1 | C=C[C@@](C)(/C=C/c1ccc(O)cc1)CCC=C(C)C [BAKUCHIOL] | 110
2 | CC(C)=CCc1c(O)ccc(C(=O)/C=C/c2ccc(O)cc2)c1O [ISOBAVACHALCONE] | 51.5
